According to patent US20260356957A1, “METHODS FOR TREATMENT OF NON-SMALL CELL LUNG CANCER (NSCLC)” (Janssen Biotech, Inc., priority 2023, published 2026):

How the values were obtained:
[1] = tested on: EGFR-mutated NSCLC with brain metastasis; assay: MARIPOSA Phase 3, intracranial PFS by BICR in participants with history of brain metastasis; assay type: in vivo, human
Source text: • 1. […] Intracranial PFS [Time Frame: Up to approximately 42 months]. […] Incidence and Severity of Adverse Events (AEs) [Time Frame: Up to approximately 60 months]. Incidence and severity of treatment emergent adverse events (TEAEs) will be reported. Any adverse event occurring at or after the initial administration of study treatment through the day of last dose plus 30 days, or until the start of subsequent anticancer therapy (if earlier), is considered to be treatment emergent. • 8. Number of Participants with Clinical Laboratory Abnormalities [Time Frame: Up to approximately 60 months]. Number of participants with clinical laboratory abnormalities (serum chemistry, hematology, blood coagulation, and urine samples) will be reported. • 9. Number of Participants with Vital Signs Abnormalities [Time Frame: Up to approximately 60 months]. Number of participants with vital signs abnormalities (temperature, heart rate, respiratory rate, oxygen saturation, blood pressure) will be reported. • 10. Number of Participants with Physical Examination Abnormalities [Time Frame: Up to approximately 60 months]. Number of participants with physical examination abnormalities will be reported. • 11. […] Number of Participants with Anti-Amivantamab Antibodies [Time Frame: Up to approximately 42 months]. […] Change from Baseline in Non-Small Cell Lung Cancer-Symptom Assessment Questionnaire (NCSLC-SAQ) [Time Frame: Baseline Up to approximately 42 months]. The NSCLC-SAQ contains 7 items that assess cough, pain, dyspnea, fatigue, and poor appetite over a 7-day recall period. Each multi-item scale and individual item will be summarized using count and percent by visit. • 15. Change from Baseline in European Organization of Research and Treatment of Cancer Quality of Life Questionnaire Core 30 (EORTC-QLQ-C30) [Time Frame: Baseline Up to approximately 42 months]. EORTC-QLQ-C30 is a core 30-item questionnaire for evaluating the health-related quality of life (HRQOL) of participants participating in cancer clinical studies. • 16.

[2] = tested on: EGFR-mutated locally advanced or metastatic NSCLC; assay: MARIPOSA Phase 3, progression-free survival by BICR; assay type: in vivo, human
Source text: The primary endpoint of the study is PFS (using RECIST v1.1 guidelines) as assessed by blinded independent central review (BICR).

[3] = tested on: EGFR-mutated locally advanced or metastatic NSCLC; assay: MARIPOSA Phase 3, duration of response by BICR; assay type: in vivo, human; settings: confirmed responders
[4] = tested on: EGFR-mutated locally advanced or metastatic NSCLC; assay: MARIPOSA Phase 3, overall survival; assay type: in vivo, human
[5] = tested on: EGFR-mutated locally advanced or metastatic NSCLC; assay: MARIPOSA Phase 3, time to subsequent therapy (TTST) and subsequent therapy; assay type: in vivo, human
EGFR-mutated NSCLC = settings: all prespecified subgroups; cited from earlier work
[6] = tested on: EGFR-mutated locally advanced or metastatic NSCLC; assay: MARIPOSA Phase 3, time to symptomatic progression (TTSP); assay type: in vivo, human
[7] = tested on: EGFR-mutated locally advanced or metastatic NSCLC; assay: MARIPOSA Phase 3, objective response by BICR (RECIST v1.1); assay type: in vivo, human; settings: best overall response
[8] = tested on: EGFR-mutated locally advanced or metastatic NSCLC; assay: MARIPOSA Phase 3, progression-free survival after first subsequent therapy (PFS2); assay type: in vivo, human
Source text: The efficacy population included all patients who had undergone randomization. Tick marks indicate censoring of data. […]

[9] = MARIPOSA Phase 3, adverse events; assay type: in vivo, human; settings: in vivo
Source text: • 1. […] Incidence and Severity of Adverse Events (AEs) [Time Frame: Up to approximately 60 months]. Incidence and severity of treatment emergent adverse events (TEAEs) will be reported. Any adverse event occurring at or after the initial administration of study treatment through the day of last dose plus 30 days, or until the start of subsequent anticancer therapy (if earlier), is considered to be treatment emergent. • 8. Number of Participants with Clinical Laboratory Abnormalities [Time Frame: Up to approximately 60 months]. Number of participants with clinical laboratory abnormalities (serum chemistry, hematology, blood coagulation, and urine samples) will be reported. • 9. Number of Participants with Vital Signs Abnormalities [Time Frame: Up to approximately 60 months]. Number of participants with vital signs abnormalities (temperature, heart rate, respiratory rate, oxygen saturation, blood pressure) will be reported. • 10. Number of Participants with Physical Examination Abnormalities [Time Frame: Up to approximately 60 months]. Number of participants with physical examination abnormalities will be reported. • 11. […] The NSCLC-SAQ contains 7 items that assess cough, pain, dyspnea, fatigue, and poor appetite over a 7-day recall period. Each multi-item scale and individual item will be summarized using count and percent by visit. • 15. […] EORTC-QLQ-C30 is a core 30-item questionnaire for evaluating the health-related quality of life (HRQOL) of participants participating in cancer clinical studies. • 16.

## C=CC(=O)Nc1cc(Nc2nccc(-n3cc(CN(C)C)c(-c4ccccc4)n3)n2)c(OC)cc1N1CCOCC1 [Lazertinib, N-(5-(4-(4-((dimethylamino)methyl)-3-phenyl-1H-pyrazol-1-yl)pyrimidin-2-ylamino)-4-methoxy-2-morpholinophenyl) acrylamide]
[1]
  Event (intracranial PFS): 37 (43.0%) (%)
[1]; NE = not estimable
  Intracranial PFS time to event, 75th percentile (95% CI): NE (22.67, NE)
[2]
  PFS 6-month event-free rate (95% CI): 0.85 (0.79, 0.89)
  PFS 18-month event-free rate (95% CI): 0.52 (0.44, 0.58)
  PFS 24-month event-free rate (95% CI): 0.35 (0.27, 0.42)
  PFS 30-month event-free rate (95% CI): 0.30 (0.22, 0.39)
[2]; Full Analysis Set
  Censored (PFS): 95 (44.0%) (%)
  PFS time to event, 75th percentile (95% CI): NE (24.05, NE)
[3]
  Censored (DOR): 77 (48.1%) (%)
  Event (DOR): 83 (51.9%) (%)
[3]; NE = not estimable
  DOR time to event, 75th percentile (95% CI): NE (NE, NE)
[4]; Full Analysis Set
  Censored (OS): 160 (74.1%) (%)
  Event (OS): 56 (25.9%) (%)
  OS 12-month event-free rate (95% CI): 0.86 (0.81, 0.90)
  OS 18-month event-free rate (95% CI): 0.78 (0.71, 0.83)
  OS 24-month event-free rate (95% CI): 0.71 (0.61, 0.78)
  OS 30-month event-free rate (95% CI): 0.68 (0.58, 0.75)
[4]; NE = not estimable
  OS time to event, 75th percentile (95% CI): NE (NE, NE)
[4]; interim analysis, NE = not estimable
  Median overall survival (95% CI): NE (NE, NE)
[5]; Full Analysis Set
  TTST 6-month event-free rate (95% CI): 0.90 (0.85, 0.93)
  TTST 12-month event-free rate (95% CI): 0.71 (0.66, 0.78)
  TTST 18-month event-free rate (95% CI): 0.60 (0.53, 0.66)
  TTST 24-month event-free rate (95% CI): 0.50 (0.43, 0.58)
[5]; NE = not estimable
  TTST time to event, 75th percentile (95% CI): NE (NE , NE)
EGFR-mutated NSCLC
  PFS vs gefitinib: improved PFS compared to the first generation EGFR TKI gefitinib in all prespecified subgroups
[6]; Full Analysis Set
  Death without Symptomatic PD: 24 (11.1%) (%)
  Event (TTSP): 70 (22.4%) (%)
  TTSP 6-month event-free rate (95% CI): 0.90 (0.85, 0.93)
  TTSP 12-month event-free rate (95% CI): 0.79 (0.72, 0.84)
  TTSP 18-month event-free rate (95% CI): 0.71 (0.64, 0.76)
  TTSP 24-month event-free rate (95% CI): 0.65 (0.58, 0.72)
  TTSP 30-month event-free rate (95% CI): 0.61 (0.52, 0.69)
  TTSP time to event, 25th percentile (95% CI): 13.80 (10.41, 18.56) months
[6]; NE = not estimable
  TTSP Median (95% CI): NE (NE, NE)
  TTSP time to event, 75th percentile (95% CI): NE (NE, NE)
[7]
  Complete Response (CR): 9 (4.2%) (%)
  Not Evaluable (NE): 5 (2.3%) (%)
  Progressive Disease (PD): 9 (4.2%) (%)
[8]; Full Analysis Set
  Event (PFS2): 58 (26.9%) (%)
[8]; NE = not estimable
  PFS2 time to event, 75th percentile (95% CI): NE (28.94, NE)
[9]
  Safety profile: well defined and tolerable, and largely consistent with that seen with other 3rd generation EGFR TKI

## Amivantamab: IgG1 anti-EGFR/c-Met bispecific antibody described in U.S. Pat. No. 9,593,164; SEQ ID NO: 1-20
[9]
  Safety profile: well defined and tolerable, largely consistent with its on-target activity against the EGFR and MET pathways
